This experiment relates to denuded oocytes (DO). As to the kind of experiment: Oocyte assay, antagonistic testing, inhibition of FF-Mas induced maturation in denuded oocytes (DO assay). The class given is cell-based, mice (B6D2-F1, strain C57BL×DBA). The following applies: FF-Mas 5 μM, compound tested 5 μM, control (FF-Mas alone) in brackets. As for the experimental part:
The meiosis inhibiting activity of the 22R-hydroxycholesta-8,14-diene derivatives of the invention is measured in an in vitro oocyte assay as the ability to inhibit the FF-Mas or 22S-hydroxy-FF-Mas induced maturation, in hypoxanthine media, in denuded oocytes (DO) or cumulus enclosed oocytes (CEO), respectively. Natural resumption of meiosis can be mimicked in vitro by addition of FF-Mas or other agonists to the culture medium containing hypoxanthine. The antagonistic activity of the compounds is measured as the ability to inhibit the FF-Mas or 22S-hydroxy-FF-Mas induced oocyte maturation in denuded oocytes or cumulus enclosed oocytes, respectively, in vitro. Ovaries are obtained from immature female mice (B6D2-F1, strain C57BL×DBA). At the age of 19, 20 or 21 days the mice are injected subcutaneously with a single dose of 20 IU follicle stimulating hormone (Humegon, Organon, The Netherlands) in saline. Forty-eight hours after follicle stimulating hormone injection mice are killed by cervical dislocation. The ovaries are removed, freed of extraneous tissue and placed in a multidish containing 0.5 ml preparation medium at 37° C. L-15 Leibovitz medium (Gibco, pH 7.3±0.1) supplemented with bovine serum albumin (3 mg·ml^−1), L-glutamine (0.23 mM), sodium pyruvate (2 mM) and hypoxanthine (4 mM) is used as preparation medium. The antral follicles of the ovaries are punctured under a dissecting microscope using two 27-gauge needles attached to two 1 ml syringes. […] At t=0 the number of oocytes with intact germinal vesicles (GV) or germinal vesicle break-down (GVBD) is counted under an inverted microscope with differential interference contrast equipment. […] At the end of the culture period the number of oocytes with GV or GVBD per group is counted. For statistical analysis the percentage germinal vesicle breakdown is calculated for each group in one block. These percentages are subjected to arcsin transformation, and differences between control and test compounds are analyzed by an ANOVA test for a randomized block design. […]

Structures are written as SMILES.

With `CC(C)CC[C@@H](O)[C@@H](C)[C@H]1CC=C2C3=C(CC[C@@]21C)[C@@]1(C)CC[C@H](O)C(C)(C)[C@@H]1CC3` [Example 1, (3β,5α,20S,22R)-4,4-Dimethylcholesta-8,14-diene-3,22-diol], the “% GVBD DO assay exp.” value is given as 0(55) %.

In the case of `CC(C)=CC[C@@H](O)[C@@H](C)[C@H]1CC=C2C3=C(CC[C@@]21C)[C@@]1(C)CC[C@H](O)C(C)(C)[C@@H]1CC3` [Example 2, (3β,5α,20S,22R)-4,4-Dimethylcholesta-8,14,24-triene-3,22-diol], the “% GVBD DO assay exp.” value is recorded as 0(90) %.

The values are drawn from patent US6518262B1, “22R-hydroxycholesta-8, 14-diene derivatives for the inhibition of meiosis” (Akzo Nobel N.V., priority 1999, dated 2003).
